Results taken from ChEMBL document CHEMBL2074139, “Increase in bile flow and biliary excretion of glutathione-derived sulfhydryls in rats by drug-metabolizing enzyme inducers is mediated by multidrug resistance protein 2” (Toxicol Sci, 2002).

Biological target: ATP-binding cassette sub-family C member 2 (Rattus norvegicus, UniProt Q63120)
Assay: TP_TRANSPORTER: Western in vivo SD rat, liver
Format: functional, organism-based, Sprague-Dawley

Chain of ATP-binding cassette sub-family C member 2 (Q63120 whole entry): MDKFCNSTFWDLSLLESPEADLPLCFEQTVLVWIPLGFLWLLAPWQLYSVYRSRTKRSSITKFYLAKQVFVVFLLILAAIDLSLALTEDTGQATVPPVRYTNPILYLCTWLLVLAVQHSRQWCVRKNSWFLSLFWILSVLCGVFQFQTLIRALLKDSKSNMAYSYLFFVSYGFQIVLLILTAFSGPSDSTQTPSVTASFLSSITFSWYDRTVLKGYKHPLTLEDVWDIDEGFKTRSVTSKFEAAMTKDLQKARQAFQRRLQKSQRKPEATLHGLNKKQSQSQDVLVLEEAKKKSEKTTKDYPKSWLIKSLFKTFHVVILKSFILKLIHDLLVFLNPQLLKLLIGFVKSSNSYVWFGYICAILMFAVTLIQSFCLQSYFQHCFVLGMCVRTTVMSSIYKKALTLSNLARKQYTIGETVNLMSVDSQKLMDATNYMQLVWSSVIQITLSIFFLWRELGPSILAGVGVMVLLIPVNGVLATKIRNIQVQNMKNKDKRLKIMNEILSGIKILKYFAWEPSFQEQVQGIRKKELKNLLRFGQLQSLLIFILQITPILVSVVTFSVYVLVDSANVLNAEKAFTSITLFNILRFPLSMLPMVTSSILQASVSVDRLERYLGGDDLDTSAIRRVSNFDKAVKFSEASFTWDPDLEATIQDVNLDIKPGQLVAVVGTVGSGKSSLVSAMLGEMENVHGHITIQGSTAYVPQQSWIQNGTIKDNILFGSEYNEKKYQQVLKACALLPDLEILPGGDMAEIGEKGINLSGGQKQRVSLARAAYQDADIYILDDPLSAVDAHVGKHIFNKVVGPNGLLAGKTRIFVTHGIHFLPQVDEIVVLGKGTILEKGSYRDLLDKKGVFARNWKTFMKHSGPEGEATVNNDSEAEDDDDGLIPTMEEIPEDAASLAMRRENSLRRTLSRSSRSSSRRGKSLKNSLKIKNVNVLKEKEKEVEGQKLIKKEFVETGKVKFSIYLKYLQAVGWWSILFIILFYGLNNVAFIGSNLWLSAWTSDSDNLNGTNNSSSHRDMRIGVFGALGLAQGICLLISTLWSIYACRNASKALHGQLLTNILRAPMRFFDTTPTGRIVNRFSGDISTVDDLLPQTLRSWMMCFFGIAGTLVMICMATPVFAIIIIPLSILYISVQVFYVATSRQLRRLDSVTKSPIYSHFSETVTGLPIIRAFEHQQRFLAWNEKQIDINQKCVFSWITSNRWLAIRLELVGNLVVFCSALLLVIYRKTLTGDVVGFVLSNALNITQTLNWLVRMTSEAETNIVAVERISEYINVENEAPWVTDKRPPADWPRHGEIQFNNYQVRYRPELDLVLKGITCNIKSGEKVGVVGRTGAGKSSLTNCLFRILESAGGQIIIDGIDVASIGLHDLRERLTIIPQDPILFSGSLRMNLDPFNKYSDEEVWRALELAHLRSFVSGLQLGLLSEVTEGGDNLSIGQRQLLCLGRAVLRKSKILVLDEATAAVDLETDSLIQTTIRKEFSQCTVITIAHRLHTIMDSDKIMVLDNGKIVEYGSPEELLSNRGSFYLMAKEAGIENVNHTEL

Structure (SMILES)	Activity
CCC1(c2ccccc2)C(=O)NC(=O)NC1=O [PHENOBARBITAL]	inducer [+]
CC(=O)[C@H]1[C@H](C#N)C[C@H]2[C@@H]3CC=C4C[C@@H](O)CC[C@]4(C)[C@H]3CC[C@@]21C [PREGNENOLONE CARBONITRILE]	inducer [+]
